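Five compound concentrations were applied to cells in 96-well plates for 48 hours; endpoints were derived by simple linear interpolation of the resulting dose-response curve. Abbreviation: GI50, concentration required for 50% inhibition of growth. At the TGI there is no net growth.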
Assays:
Assay in all cases: NCI anticancer screen, dose series, 48 h
786-0 renal = tested on: 786-0 renal
A549 NSCLC = tested on: A549 NSCLC
ACHN renal = tested on: ACHN renal
BT-549 breast = tested on: BT-549 breast
CAKI-1 renal = tested on: CAKI-1 renal
CCRF-CEM leukemia = tested on: CCRF-CEM leukemia
COLO 205 colon = tested on: COLO 205 colon
DU-145 prostate = tested on: DU-145 prostate
EKVX NSCLC = tested on: EKVX NSCLC
HCC-2998 colon = tested on: HCC-2998 colon
HCT-116 colon = tested on: HCT-116 colon
HCT-15 colon = tested on: HCT-15 colon
HL-60(TB) leukemia = tested on: HL-60(TB) leukemia
HOP-62 NSCLC = tested on: HOP-62 NSCLC
HT29 colon = tested on: HT29 colon
K-562 leukemia = tested on: K-562 leukemia
KM12 colon = tested on: KM12 colon
LOX IMVI melanoma = tested on: LOX IMVI melanoma
M14 melanoma = tested on: M14 melanoma
MALME-3M melanoma = tested on: MALME-3M melanoma
MCF7 breast = tested on: MCF7 breast
MDA-MB-231 breast = tested on: MDA-MB-231 breast
MDA-MB-435 = tested on: MDA-MB-435
MOLT-4 leukemia = tested on: MOLT-4 leukemia
NCI-H23 lung = tested on: NCI-H23 lung
NCI-H460 lung = tested on: NCI-H460 lung
NCI/ADR-RES ovarian = tested on: NCI/ADR-RES ovarian
OVCAR-3 ovarian = tested on: OVCAR-3 ovarian
OVCAR-4 ovarian = tested on: OVCAR-4 ovarian
OVCAR-5 ovarian = tested on: OVCAR-5 ovarian
OVCAR-8 ovarian = tested on: OVCAR-8 ovarian
PC-3 prostate = tested on: PC-3 prostate
RPMI-8226 leukemia = tested on: RPMI-8226 leukemia
RXF 393 renal = tested on: RXF 393 renal
SF-268 CNS = tested on: SF-268 CNS
SF-295 CNS = tested on: SF-295 CNS
SK-MEL-2 melanoma = tested on: SK-MEL-2 melanoma
SK-MEL-28 melanoma = tested on: SK-MEL-28 melanoma
SK-MEL-5 melanoma = tested on: SK-MEL-5 melanoma
SN12C renal = tested on: SN12C renal
SNB-19 CNS = tested on: SNB-19 CNS
SNB-75 CNS = tested on: SNB-75 CNS
SR leukemia = tested on: SR leukemia
TK-10 renal = tested on: TK-10 renal
U251 CNS = tested on: U251 CNS
UACC-257 melanoma = tested on: UACC-257 melanoma
UO-31 renal = tested on: UO-31 renal
A498 renal = tested on: A498 renal
HOP-92 NSCLC = tested on: HOP-92 NSCLC
HS 578T breast = tested on: HS 578T breast
IGROV1 ovarian = tested on: IGROV1 ovarian
NCI-H226 lung = tested on: NCI-H226 lung
NCI-H522 lung = tested on: NCI-H522 lung
SF-539 CNS = tested on: SF-539 CNS
SK-OV-3 ovarian = tested on: SK-OV-3 ovarian
SW-620 colon = tested on: SW-620 colon
UACC-62 melanoma = tested on: UACC-62 melanoma

For `O=c1[nH]nc(NCCc2ccccc2)c2nnn(Cc3ccccc3)c12`, the TGI (786-0 renal) was over 100000 nM, the TGI (A549 NSCLC) was over 100000 nM and the TGI (ACHN renal) was over 100000 nM. The TGI (BT-549 breast) was over 100000 nM, the TGI (CAKI-1 renal) was over 100000 nM and the TGI (CCRF-CEM leukemia) was over 100000 nM. For the same compound, the TGI (COLO 205 colon) was over 100000 nM, the TGI (DU-145 prostate) was over 100000 nM and the TGI (EKVX NSCLC) was over 100000 nM. The TGI (HCC-2998 colon) was over 100000 nM, the TGI (HCT-116 colon) was over 100000 nM and the TGI (HCT-15 colon) was over 100000 nM. For the same compound, the TGI (HL-60(TB) leukemia) was over 100000 nM, the TGI (HOP-62 NSCLC) was over 100000 nM and the TGI (HT29 colon) was over 100000 nM. For the same compound, the TGI (K-562 leukemia) was over 100000 nM, the TGI (KM12 colon) was over 100000 nM and the TGI (LOX IMVI melanoma) was over 100000 nM. The TGI (M14 melanoma) was over 100000 nM, the TGI (MALME-3M melanoma) was over 100000 nM and the TGI (MCF7 breast) was over 100000 nM. The TGI (MDA-MB-231 breast) was over 100000 nM, the TGI (MDA-MB-435) was over 100000 nM and the TGI (MOLT-4 leukemia) was over 100000 nM. For the same compound, the TGI (NCI-H23 lung) was over 100000 nM, the TGI (NCI-H460 lung) was over 100000 nM and the TGI (NCI/ADR-RES ovarian) was over 100000 nM. The TGI (OVCAR-3 ovarian) was over 100000 nM, the TGI (OVCAR-4 ovarian) was over 100000 nM and the TGI (OVCAR-5 ovarian) was over 100000 nM. For the same compound, the TGI (OVCAR-8 ovarian) was over 100000 nM, the TGI (PC-3 prostate) was over 100000 nM and the TGI (RPMI-8226 leukemia) was over 100000 nM. It also gave a TGI (RXF 393 renal) of over 100000 nM, a TGI (SF-268 CNS) of over 100000 nM and a TGI (SF-295 CNS) of over 100000 nM. For the same compound, the TGI (SK-MEL-2 melanoma) was over 100000 nM, the TGI (SK-MEL-28 melanoma) was over 100000 nM and the TGI (SK-MEL-5 melanoma) was over 100000 nM. For the same compound, the TGI (SN12C renal) was over 100000 nM, the TGI (SNB-19 CNS) was over 100000 nM and the TGI (SNB-75 CNS) was over 100000 nM. For the same compound, the TGI (SR leukemia) was over 100000 nM, the TGI (TK-10 renal) was over 100000 nM and the TGI (U251 CNS) was over 100000 nM. The TGI (UACC-257 melanoma) was over 100000 nM and the TGI (UO-31 renal) was over 100000 nM.
With `COC(=O)[C@@H](C)C[C@H](Cc1ccccc1)NC(=O)c1nc([C@@H](C[C@H](C(C)C)N(C)C(=O)[C@@H](NC(=O)[C@H]2CCCCN2C)C(C)C)OC(C)=O)sc1C(C)C` the GI50 (786-0 renal) was under 3.33 nM, the TGI (786-0 renal) was 1060 nM and the GI50 (A498 renal) was under 3.33 nM. For the same compound, the TGI (A498 renal) was 7.76 nM, the GI50 (A549 NSCLC) was 18.7 nM and the TGI (A549 NSCLC) was 15700 nM. For the same compound, the GI50 (ACHN renal) was under 3.33 nM, the TGI (ACHN renal) was 7060 nM and the GI50 (BT-549 breast) was under 3.33 nM. The TGI (BT-549 breast) was 83.7 nM, the GI50 (CAKI-1 renal) was 4.83 nM and the TGI (CAKI-1 renal) was 5530 nM. For the same compound, the GI50 (CCRF-CEM leukemia) was 7.93 nM, the TGI (CCRF-CEM leukemia) was over 33300 nM and the GI50 (COLO 205 colon) was 5.22 nM. It also gave a TGI (COLO 205 colon) of 40.1 nM, a GI50 (DU-145 prostate) of under 3.33 nM and a TGI (DU-145 prostate) of 434 nM. The GI50 (EKVX NSCLC) was 13.5 nM, the TGI (EKVX NSCLC) was over 33300 nM and the GI50 (HCC-2998 colon) was under 3.33 nM. The TGI (HCC-2998 colon) was 1440 nM, the GI50 (HCT-116 colon) was under 3.33 nM and the TGI (HCT-116 colon) was 476 nM. It also gave a GI50 (HCT-15 colon) of 33.5 nM, a TGI (HCT-15 colon) of 4430 nM and a GI50 (HL-60(TB) leukemia) of under 3.33 nM. The TGI (HL-60(TB) leukemia) was under 3.33 nM, the GI50 (HOP-62 NSCLC) was 12.9 nM and the TGI (HOP-62 NSCLC) was 10400 nM. For the same compound, the GI50 (HOP-92 NSCLC) was 219 nM, the TGI (HOP-92 NSCLC) was over 21600 nM and the GI50 (HS 578T breast) was 5.03 nM. The TGI (HS 578T breast) was 1340 nM, the GI50 (HT29 colon) was under 3.33 nM and the TGI (HT29 colon) was 583 nM. For the same compound, the GI50 (IGROV1 ovarian) was under 3.33 nM, the TGI (IGROV1 ovarian) was over 11900 nM and the GI50 (K-562 leukemia) was under 3.33 nM. The TGI (K-562 leukemia) was 5430 nM, the GI50 (KM12 colon) was under 3.33 nM and the TGI (KM12 colon) was 4200 nM. It also gave a GI50 (LOX IMVI melanoma) of 7.91 nM, a TGI (LOX IMVI melanoma) of 3930 nM and a GI50 (M14 melanoma) of 3.38 nM. For the same compound, the TGI (M14 melanoma) was 12.7 nM, the GI50 (MALME-3M melanoma) was 42.4 nM and the TGI (MALME-3M melanoma) was 5810 nM. The GI50 (MCF7 breast) was under 3.33 nM, the TGI (MCF7 breast) was over 25600 nM and the GI50 (MDA-MB-231 breast) was 9.02 nM. For the same compound, the TGI (MDA-MB-231 breast) was 2200 nM, the GI50 (MOLT-4 leukemia) was 13.9 nM and the TGI (MOLT-4 leukemia) was 14500 nM. For the same compound, the GI50 (NCI-H226 lung) was 12.2 nM, the TGI (NCI-H226 lung) was 1370 nM and the GI50 (NCI-H23 lung) was 9.65 nM. For the same compound, the TGI (NCI-H23 lung) was 16100 nM, the GI50 (NCI-H460 lung) was 4.5 nM and the TGI (NCI-H460 lung) was 3520 nM. For the same compound, the GI50 (NCI-H522 lung) was under 3.33 nM, the TGI (NCI-H522 lung) was 55 nM and the GI50 (NCI/ADR-RES ovarian) was 216 nM. It also gave a TGI (NCI/ADR-RES ovarian) of over 7800 nM, a GI50 (OVCAR-3 ovarian) of under 3.33 nM and a TGI (OVCAR-3 ovarian) of 70.3 nM. It also gave a GI50 (OVCAR-4 ovarian) of 10.3 nM, a TGI (OVCAR-4 ovarian) of over 33300 nM and a GI50 (OVCAR-5 ovarian) of 13.6 nM. The TGI (OVCAR-5 ovarian) was 16000 nM, the GI50 (OVCAR-8 ovarian) was 7.92 nM and the TGI (OVCAR-8 ovarian) was 8620 nM. For the same compound, the GI50 (PC-3 prostate) was under 3.33 nM, the TGI (PC-3 prostate) was over 33300 nM and the GI50 (RPMI-8226 leukemia) was under 3.33 nM. It also gave a TGI (RPMI-8226 leukemia) of 6960 nM, a GI50 (RXF 393 renal) of under 3.33 nM and a TGI (RXF 393 renal) of 7780 nM. For the same compound, the GI50 (SF-268 CNS) was 18.4 nM, the TGI (SF-268 CNS) was 7720 nM and the GI50 (SF-295 CNS) was under 3.33 nM. It also gave a TGI (SF-295 CNS) of 276 nM, a GI50 (SF-539 CNS) of 7 nM and a TGI (SF-539 CNS) of 24.2 nM. The GI50 (SK-MEL-2 melanoma) was 5.03 nM, the TGI (SK-MEL-2 melanoma) was 5730 nM and the GI50 (SK-MEL-5 melanoma) was under 3.33 nM. It also gave a TGI (SK-MEL-5 melanoma) of 44.9 nM, a GI50 (SK-OV-3 ovarian) of under 3.33 nM and a TGI (SK-OV-3 ovarian) of 33100 nM. For the same compound, the GI50 (SN12C renal) was 7.65 nM, the TGI (SN12C renal) was 4510 nM and the GI50 (SNB-19 CNS) was under 3.33 nM. For the same compound, the TGI (SNB-19 CNS) was over 33300 nM, the GI50 (SNB-75 CNS) was 3.88 nM and the TGI (SNB-75 CNS) was 9380 nM. The GI50 (SR leukemia) was under 3.33 nM, the TGI (SR leukemia) was over 15000 nM and the GI50 (SW-620 colon) was under 3.33 nM. It also gave a TGI (SW-620 colon) of over 25700 nM, a GI50 (TK-10 renal) of 117 nM and a TGI (TK-10 renal) of 14400 nM. It also gave a GI50 (U251 CNS) of 12 nM, a TGI (U251 CNS) of 8510 nM and a GI50 (UACC-62 melanoma) of under 3.33 nM. For the same compound, the TGI (UACC-62 melanoma) was 32600 nM, the GI50 (UO-31 renal) was 15.4 nM and the TGI (UO-31 renal) was 5370 nM.
